Source: US20030073850A1, “4-Imidazole derivatives of benzyl and restricted benzyl sulfonamides, sulfamides, ureas, carbamates, and amides and their use” (priority 1998, published 2003)

Tests used:
α1B (rat spleen) = biological target: T1, α1B (rat spleen) (Rattus norvegicus, UniProt P15823); assay: Agonist tissue response, contraction of rat spleen; assay type: biochemical; conditions: read-out: Agonist Tissue Response (pD2) α1B (rat spleen) (converted)
T1 construct: α1B (rat spleen) and α1D (rat aorta) receptors; from tissue; host or cells: rat spleen
T1 sequence (P15823 1-515): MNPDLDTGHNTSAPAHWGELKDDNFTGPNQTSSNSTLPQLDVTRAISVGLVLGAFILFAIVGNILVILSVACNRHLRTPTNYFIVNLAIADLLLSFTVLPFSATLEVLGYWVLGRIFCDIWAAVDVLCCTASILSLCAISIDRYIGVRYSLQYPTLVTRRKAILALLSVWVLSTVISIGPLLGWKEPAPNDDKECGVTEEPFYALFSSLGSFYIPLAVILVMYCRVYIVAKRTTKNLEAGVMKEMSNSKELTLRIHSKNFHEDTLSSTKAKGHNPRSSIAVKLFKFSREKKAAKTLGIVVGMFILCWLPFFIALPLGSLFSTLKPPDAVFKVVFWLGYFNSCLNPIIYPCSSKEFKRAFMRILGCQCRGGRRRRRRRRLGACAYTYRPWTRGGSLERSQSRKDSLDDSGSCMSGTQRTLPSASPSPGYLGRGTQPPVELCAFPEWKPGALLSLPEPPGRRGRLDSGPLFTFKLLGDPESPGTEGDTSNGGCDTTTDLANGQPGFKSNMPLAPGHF

[1] = biological target: T2, α1d (rat receptor expressed in mouse fibroblasts) (Rattus norvegicus, UniProt P23944); assay: Radioligand binding, [3H]-prazosin, α1d; conditions: rat receptor expressed in mouse fibroblasts, [3H]-prazosin; read-out: Radioligand Binding Ki α1d (Rat)
T2 construct: expressed in transfected cells; host or cells: mouse fibroblasts
T2 sequence (P23944 1-561): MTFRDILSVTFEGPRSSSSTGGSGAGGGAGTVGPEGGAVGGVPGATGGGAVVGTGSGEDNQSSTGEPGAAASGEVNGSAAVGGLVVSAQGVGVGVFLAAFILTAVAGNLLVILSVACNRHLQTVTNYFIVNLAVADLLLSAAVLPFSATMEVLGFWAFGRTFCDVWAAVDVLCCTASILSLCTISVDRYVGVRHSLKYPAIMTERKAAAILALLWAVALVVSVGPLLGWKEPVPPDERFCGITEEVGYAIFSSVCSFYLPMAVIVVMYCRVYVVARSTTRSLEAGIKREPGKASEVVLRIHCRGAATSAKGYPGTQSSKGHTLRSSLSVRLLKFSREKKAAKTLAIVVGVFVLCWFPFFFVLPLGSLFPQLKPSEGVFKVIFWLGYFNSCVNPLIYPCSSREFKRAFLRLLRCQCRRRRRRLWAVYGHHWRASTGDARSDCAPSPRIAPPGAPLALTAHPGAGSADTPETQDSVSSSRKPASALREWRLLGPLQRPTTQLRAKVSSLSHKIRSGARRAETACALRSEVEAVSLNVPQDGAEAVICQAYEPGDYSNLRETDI
Method in brief: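 [3H]-prazosin radioligand displacement; α1A from rat submaxillary gland tissue, α1b hamster and α1d rat receptors each expressed in mouse fibroblasts.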

anesthetized dogs = assay: Intraurethral pressure (IUP) in anesthetized dogs; assay type: in vivo, dog

melting point: 223 to 226 °C | EC50 (α1B (rat spleen)): 28.2 µM | Ki [1]: 10 µM
SMILES: CCS(=O)(=O)Nc1cccc2c1OCCC2c1c[nH]cn1 (single isomer, unassigned; (+)) [Example 95, (+) N-[4-(1H-imidazol-4-yl)-3,4-dihydro-2H-chromen-8-yl]ethanesulfonamide]
ED (5 mm Hg) (anesthetized dogs; Canis lupus familiaris, iv dose causing a maximum increase in IUP of 5 mm Hg, anesthetized female Beagle dogs, read-out: Mean IUP ED5): 0.113 µmol/kg | Mean Selectivity Ratio MAP ED20/IUP ED5 (anesthetized dogs; anesthetized dogs, iv): 0.99
